Data reported in patent publication EP0909764A1, “11 Beta-Benzaldoxim-9 Alpha, 10 Alpha-epoxy-estr-4-en-derivatives, a process for their production and pharmaceutical compositions containing them” (JENAPHARM GmbH, priority 1997, dated 1999).

Assays:
[1] = target: T1, Progesteronrezeptor (Oryctolagus cuniculus, UniProt P06186); experiment: Receptor binding affinity, competitive binding with 3H-ORG 2058 in uterus cytosol; design: species or system Kaninchen; details: uterus cytosol of estradiol-primed rabbit; tracer 3H-ORG 2058 5nM; 18 h at 0-4°C; quotient of IC50 values x 100 %
T1 construct: Rezeptoren im Cytosol aus tierischen Target-Organen; from tissue; host or cells: uterus cytosol of estradiol-primed rabbit
T1 sequence (P06186 1-930): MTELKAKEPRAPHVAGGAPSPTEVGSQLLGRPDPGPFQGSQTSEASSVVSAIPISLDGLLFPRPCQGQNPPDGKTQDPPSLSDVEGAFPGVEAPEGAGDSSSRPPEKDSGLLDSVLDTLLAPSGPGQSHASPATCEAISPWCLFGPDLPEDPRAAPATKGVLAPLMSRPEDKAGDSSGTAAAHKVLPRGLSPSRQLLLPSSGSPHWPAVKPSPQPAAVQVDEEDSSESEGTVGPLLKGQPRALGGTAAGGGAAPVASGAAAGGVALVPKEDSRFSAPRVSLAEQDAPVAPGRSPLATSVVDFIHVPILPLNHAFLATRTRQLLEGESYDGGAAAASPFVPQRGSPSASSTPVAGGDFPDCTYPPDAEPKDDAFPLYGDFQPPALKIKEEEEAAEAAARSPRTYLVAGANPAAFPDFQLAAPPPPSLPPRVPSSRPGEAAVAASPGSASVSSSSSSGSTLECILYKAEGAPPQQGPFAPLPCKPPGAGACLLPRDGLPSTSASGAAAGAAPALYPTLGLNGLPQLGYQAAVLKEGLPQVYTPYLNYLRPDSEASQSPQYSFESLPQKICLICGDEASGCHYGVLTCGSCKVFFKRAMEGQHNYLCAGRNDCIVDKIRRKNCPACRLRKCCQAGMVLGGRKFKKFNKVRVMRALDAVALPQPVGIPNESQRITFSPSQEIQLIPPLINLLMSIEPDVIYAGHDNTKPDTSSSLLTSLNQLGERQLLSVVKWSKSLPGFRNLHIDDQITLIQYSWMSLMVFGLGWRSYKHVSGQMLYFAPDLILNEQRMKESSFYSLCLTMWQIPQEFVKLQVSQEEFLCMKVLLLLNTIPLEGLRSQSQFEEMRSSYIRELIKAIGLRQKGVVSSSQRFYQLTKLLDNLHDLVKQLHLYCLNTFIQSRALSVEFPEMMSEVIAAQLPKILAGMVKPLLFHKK
Method: (§1) Die Rezeptor-Bindungsaffinität wurde bestimmt durch competitive Bindung eines spezifisch bindenden ^3H-markierten Hormons (Tracer) und der zu testenden Verbindung an Rezeptoren im Cytosol aus tierischen Target-Organen. Dabei wurden Rezeptorsättigung und Reaktionsgleichgewicht angestrebt. Folgende Inkubationsbe-dingungen wurden gewählt: • Progesteron-Rezeptor: Uterus-Cytosol des Estradiol-geprimten Kannchens, aufbe-wahrt bei -30° C. Puffer für Homogenisation und Inkubation: TED-Puffer 20 mM Tris/HCl, pH= 7,4; 1mM Ethylendiamintetraacetat, 2 mM Dithiothreitol) mit 250mM Saccharose. Tracer: ^3H-ORG 2058, 5nM; Referenzsubstanz: Progesteron. • Glucocorticoid-Rezeptor: Thymus-Cytosol der adrenalectomierten Ratte. Thymi aufbewahrt bei -30 °C. Puffer: TED. Tracer: ^3H-Dexamethason, 20nM. Referenzsub-stanz: Dexamethason. • Estrogen-Rezeptor: Uterus-Cytosol des unreifen Kaninchens, aufbewahrt bei -30 °C. Puffer:TED mit 250 mM Saccharose. Tracer: ^3H-Estradiol, 3nM. Referenzsubstanz: 17β-Estradiol.
(§2) Nach einer Inkubation von Rezeptorfraktion, Tracer und Competitor für 18 h bei 0-4°C erfolgte die Trennung von gebundenem und freiem Steroid durch Einmischen von Aktivkohle/Dextran (1 % / 0,1 %), Abzentrifugieren und Messung der rezeptorgebundenen ^3H-Aktivität im Überstand.
Aus der Messung in Konzentrationsreihen wurden die IC50 für die Referenzsubstanz und für die zu testende Verbindung ermittelt und als Quotient beider Werte (x 100 %) die relative molare Bindungsaffinität bestimmt. Nach einer Inkubationsdauer von 18 Stunden bei 0-4 °C erfolgte die Trennung von gebundenen und freiem Steroid durch Einmischen von Aktivkohle/Dextran / 1%/0,1 %), abzentrifugieren und Messung der gebundenen ^3H-Aktivität im Überstand. Aus der Messung in Konzentrationsreihen wurden die IC50 für die zu testende Substanz und für die Referenzverbindung ermittelt und als Quotient beider Werte (x 100 %) die relative molare Bindungsaffinität bestimmt.

[2] = target: T2, Glucocorticoidrezeptor (Rattus norvegicus, UniProt P06536); experiment: Receptor binding affinity, competitive binding with 3H-Dexamethason in thymus cytosol; design: species or system Ratte; details: thymus cytosol of adrenalectomised rat; tracer 3H-Dexamethason 20nM; 18 h at 0-4°C; quotient of IC50 values x 100 %
T2 construct: Rezeptoren im Cytosol aus tierischen Target-Organen; from tissue; host or cells: thymus cytosol of adrenalectomised rat
T2 sequence (P06536 1-795): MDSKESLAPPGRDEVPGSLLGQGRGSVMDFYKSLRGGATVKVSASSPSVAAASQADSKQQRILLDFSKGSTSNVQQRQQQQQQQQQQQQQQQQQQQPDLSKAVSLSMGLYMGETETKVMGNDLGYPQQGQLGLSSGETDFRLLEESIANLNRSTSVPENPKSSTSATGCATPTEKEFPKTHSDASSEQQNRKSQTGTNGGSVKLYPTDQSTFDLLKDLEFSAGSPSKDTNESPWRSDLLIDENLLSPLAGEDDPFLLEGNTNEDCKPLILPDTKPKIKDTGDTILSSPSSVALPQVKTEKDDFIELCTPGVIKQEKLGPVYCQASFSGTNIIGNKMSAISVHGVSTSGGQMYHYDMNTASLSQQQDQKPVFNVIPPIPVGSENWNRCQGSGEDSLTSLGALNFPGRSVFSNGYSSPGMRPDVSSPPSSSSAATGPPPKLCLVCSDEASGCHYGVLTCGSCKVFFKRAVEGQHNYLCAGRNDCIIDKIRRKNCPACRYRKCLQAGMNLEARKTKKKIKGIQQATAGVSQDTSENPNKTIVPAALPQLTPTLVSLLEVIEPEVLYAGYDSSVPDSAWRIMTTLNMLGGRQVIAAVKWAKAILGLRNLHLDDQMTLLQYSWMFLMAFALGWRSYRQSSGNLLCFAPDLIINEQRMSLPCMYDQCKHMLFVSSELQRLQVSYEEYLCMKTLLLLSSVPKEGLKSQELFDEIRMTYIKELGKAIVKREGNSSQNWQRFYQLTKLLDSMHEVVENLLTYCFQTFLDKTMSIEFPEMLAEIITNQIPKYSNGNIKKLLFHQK
Method: as §1, with “Tracer: ^3H-ORG 2058, 5nM; Referenzsubstanz: Progesteron. • Glucocorticoid-Rezeptor: Thymus-Cytosol der adrenalectomierten Ratte.” left out
as §2
Nach einer Inkubationsdauer von 18 Stunden bei 0-4 °C erfolgte die Trennung von gebundenen und freiem Steroid durch Einmischen von Aktivkohle/Dextran / 1%/0,1 %), abzentrifugieren und Messung der gebundenen ^3H-Aktivität im Überstand.

[3] = test system: frühe Gravidität bei der Ratte; experiment: Inhibition of early pregnancy in the rat (early abortive effect, subcutaneous); format: in vivo; details: day 5-7 of pregnancy, empty uteri; for komplette Graviditätshemmung N#/N: N# non-pregnant females / N mated females
Method: Rattenweibchen wurde im Stadium Prooestrus angepaart. Bei Nachweis von Spermien im Vaginalbereich am nächsten Tag wird dieser als Tag 1 (d =1) der Gravidität gesetzt. Die Behandlung der Ratten mit Testsubstanz oder Vehikel erfolgt mit 0,2 ml Benzoylbenzoat /Rizinusöl (1+4 v/v) subcutan vom Tag 5 bis Tag 7 (d5 -d7), die Autopsie erfolgt am Tag d 9. Die Rate von vollständig gehemmten Graviditäten in den einzelnen Gruppen ergibt sich aus Tabelle 2. So wurde für die Beispiele 1 (J 1102), 3 (J 1116), 8 (J 1204) und 9 (J 1120) eine um den Faktor 10 überlegene Nidationshemmung gegenüber RU 486 (Mifepriston) ermittelt.

Structure (SMILES): COC[C@]1(OC)CC[C@H]2[C@@H]3CCC4=CC(=O)CC[C@]45O[C@]35[C@@H](c3ccc(/C=N/OC(C)=O)cc3)C[C@@]21C [5 ( J 1130)]
- relative molare Bindungs-affinität RBA (%) zum Progesteronrezeptor Progesteron = 100 % [1]: 59%
- relative molare Bindungs-affinität RBA (%) zum Glucocorticoidrezeptor Dexamethason = 100 % [2]: 15%

Structure (SMILES): CN(C)c1ccc([C@H]2C[C@]3(C)[C@@H](CC[C@]3(O)CCCO)[C@@H]3CCC4=CC(=O)CCC4=C32)cc1 [ZK 98299, Onapriston]
- relative molare Bindungs-affinität RBA (%) zum Progesteronrezeptor Progesteron = 100 % [1]: 22%
- relative molare Bindungs-affinität RBA (%) zum Glucocorticoidrezeptor Dexamethason = 100 % [2]: 39%

Structure (SMILES): COC[C@]1(OC)CC[C@H]2[C@@H]3CCC4=CC(=O)CC[C@]45O[C@]35[C@@H](c3ccc(/C=N\O)cc3)C[C@@]21C [2 ( J 1160)]
- relative molare Bindungs-affinität RBA (%) zum Progesteronrezeptor Progesteron = 100 % [1]: 49%
- relative molare Bindungs-affinität RBA (%) zum Glucocorticoidrezeptor Dexamethason = 100 % [2]: 18%

Structure (SMILES): CCNC(=O)O/N=C/c1ccc([C@H]2C[C@@]3(C)[C@@H](CC[C@@]3(O)COC)[C@@H]3CCC4=CC(=O)CC[C@]45O[C@]235)cc1 [16 ( J 1186)]
- relative molare Bindungs-affinität RBA (%) zum Progesteronrezeptor Progesteron = 100 % [1]: 64%
- relative molare Bindungs-affinität RBA (%) zum Glucocorticoidrezeptor Dexamethason = 100 % [2]: 13%

Structure (SMILES): COC[C@]1(OC)CC[C@H]2[C@@H]3CCC4=CC(=O)CC[C@]45O[C@]35[C@@H](c3ccc(/C=N/O)cc3)C[C@@]21C [1 ( J 1102)]
- relative molare Bindungs-affinität RBA (%) zum Progesteronrezeptor Progesteron = 100 % [1]: 88%
- relative molare Bindungs-affinität RBA (%) zum Glucocorticoidrezeptor Dexamethason = 100 % [2]: 12%

Structure (SMILES): CC#C[C@]1(O)CC[C@H]2[C@@H]3CCC4=CC(=O)CCC4=C3[C@@H](c3ccc(N(C)C)cc3)C[C@@]21C [RU 486, Mifepriston]
- relative molare Bindungs-affinität RBA (%) zum Glucocorticoidrezeptor Dexamethason = 100 % [2]: 685%
- komplette Graviditätshemmung N#/N ([3]; 0,3 mg/Tier/Tag s.c.): 0/5
- komplette Graviditätshemmung % ([3]; 0,3 mg/Tier/Tag s.c.): 0%
- komplette Graviditätshemmung N#/N ([3]; 1 mg/Tier/Tag s.c.): 1/5
- komplette Graviditätshemmung % ([3]; 1 mg/Tier/Tag s.c.): 20%
- komplette Graviditätshemmung N#/N ([3]; 3 mg/Tier/Tag s.c.): 5/5
- komplette Graviditätshemmung % ([3]; 3 mg/Tier/Tag s.c.): 100%

Structure (SMILES): CCNC(=O)O/N=C/c1ccc([C@H]2C[C@@]3(C)[C@@H](CC[C@]3(COC)OC)[C@@H]3CCC4=CC(=O)CC[C@]45O[C@]235)cc1 [17 ( J 1131)]
- relative molare Bindungs-affinität RBA (%) zum Progesteronrezeptor Progesteron = 100 % [1]: 68%
- relative molare Bindungs-affinität RBA (%) zum Glucocorticoidrezeptor Dexamethason = 100 % [2]: 30%

Structure (SMILES): COC[C@]1(O)CC[C@H]2[C@@H]3CCC4=CC(=O)CC[C@]45O[C@]35[C@@H](c3ccc(/C=N/OC(C)=O)cc3)C[C@@]21C [6 ( J 1180)]
- relative molare Bindungs-affinität RBA (%) zum Progesteronrezeptor Progesteron = 100 % [1]: 31%
- relative molare Bindungs-affinität RBA (%) zum Glucocorticoidrezeptor Dexamethason = 100 % [2]: 8%

Structure (SMILES): COC[C@]1(O)CC[C@H]2[C@@H]3CCC4=CC(=O)CC[C@]45O[C@]35[C@@H](c3ccc(/C=N\O)cc3)C[C@@]21C [4 ( J 1182)]
- relative molare Bindungs-affinität RBA (%) zum Progesteronrezeptor Progesteron = 100 % [1]: 29%

Structure (SMILES): COC[C@]1(OC)CC[C@H]2[C@@H]3CCC4=CC(=O)CCC4=C3[C@@H](c3ccc(/C=N/O)cc3)C[C@@]21C [J 867]
- relative molare Bindungs-affinität RBA (%) zum Progesteronrezeptor Progesteron = 100 % [1]: 302%
- relative molare Bindungs-affinität RBA (%) zum Glucocorticoidrezeptor Dexamethason = 100 % [2]: 77%
- komplette Graviditätshemmung N#/N ([3]; 0,3 mg/Tier/Tag s.c.): 0/5
- komplette Graviditätshemmung % ([3]; 0,3 mg/Tier/Tag s.c.): 0%
- komplette Graviditätshemmung N#/N ([3]; 1 mg/Tier/Tag s.c.): 5/5
- komplette Graviditätshemmung % ([3]; 1 mg/Tier/Tag s.c.): 100%
- komplette Graviditätshemmung N#/N ([3]; 3 mg/Tier/Tag s.c.): 5/5
- komplette Graviditätshemmung % ([3]; 3 mg/Tier/Tag s.c.): 100%

Structure (SMILES): CCOC(=O)O/N=C/c1ccc([C@H]2C[C@@]3(C)[C@@H](CC[C@]3(COC)OC)[C@@H]3CCC4=CC(=O)CC[C@]45O[C@]235)cc1 [9 ( J 1120)]
- relative molare Bindungs-affinität RBA (%) zum Progesteronrezeptor Progesteron = 100 % [1]: 63%
- relative molare Bindungs-affinität RBA (%) zum Glucocorticoidrezeptor Dexamethason = 100 % [2]: 15%

Structure (SMILES): COC[C@]1(O)CC[C@H]2[C@@H]3CCC4=CC(=O)CC[C@]45O[C@]35[C@@H](c3ccc(/C=N/O)cc3)C[C@@]21C [3 ( J 1116)]
- relative molare Bindungs-affinität RBA (%) zum Progesteronrezeptor Progesteron = 100 % [1]: 47%
- relative molare Bindungs-affinität RBA (%) zum Glucocorticoidrezeptor Dexamethason = 100 % [2]: 12%
